Data: ChEMBL document CHEMBL4196120, “Inhibition of Connexin Hemichannels by New Amphiphilic Aminoglycosides without Antibiotic Activity” (ACS Med Chem Lett, 2018)
≈ marks a conversion by molar mass, not a printed value. Calls of active or inactive are those of the source. The calls are words filed in the database; no cut-off is given here.

Tests used:
[1] = target: Gap junction beta-2 protein (Homo sapiens) (UniProt P29033); test: Inhibition of recombinant human Cx26 expressed in Escherichia coli LB2003 assessed as reduction in cell growth measured after 18 hrs
HeLa [2] = test: Cytotoxicity against human HeLa cells assessed as reduction in cell viability at 100 ug/ml after 24 hrs by MTT assay relative to control; assay type: cell-based
Cx26 = test: Ratio of compound effect for cytotoxicity against human HeLa cells to IC50 for recombinant human Cx26 expressed in Escherichia coli LB2003; assay type: toxicity
HeLa [3] = test: Cytotoxicity against human HeLa cells assessed as reduction in cell viability up to 100 ug/ml after 24 hrs by MTT assay; assay type: cell-based
[4] = target: Gap junction beta-2 protein (Homo sapiens) (UniProt P29033); test: Inhibition of recombinant human Cx26 expressed in Escherichia coli LB2003 assessed as reduction in cell growth at 100 uM measured after 18 hrs
Staphylococcus aureus = test: Toxicity against Staphylococcus aureus ATCC 25923 measured after 18 to 24 hrs; assay type: organism-based; conditions: in vivo

NC[C@H]1O[C@H](O[C@H]2[C@H](O)[C@@H](O[C@@H]3O[C@H](COCc4ccc(F)cc4)[C@@H](OCc4ccc(F)cc4)[C@H](N)[C@H]3O)[C@H](N)C[C@@H]2N)[C@H](O)[C@@H](O)[C@@H]1O
Imax [1]: 94% | Activity (HeLa [2]): 40 to 60% | selectivity ratio (Cx26): ≤ 20

COc1ccc(COC[C@H]2O[C@@H](O[C@@H]3[C@@H](O)[C@H](O[C@H]4O[C@H](CN)[C@@H](O)[C@H](O)[C@H]4O)[C@@H](N)C[C@H]3N)[C@H](O)[C@@H](N)[C@@H]2OCc2ccc(OC)cc2)cc1
Imax [1]: 94% | Activity (HeLa [3]): Non-Toxic

CO[C@@H]1[C@@H](O[C@@H]2O[C@H](CO)[C@@H](O)[C@H](N)[C@H]2OC)[C@H](N)C[C@H](N)[C@H]1O[C@H]1O[C@H](CN)[C@@H](OC)[C@H](OC)[C@H]1OC
inhibition [4]: inactive | Activity (HeLa [3]): Non-Toxic

NC[C@H]1O[C@H](O[C@H]2[C@H](O)[C@@H](O[C@@H]3O[C@H](COCc4ccc(Cl)cc4)[C@@H](OCc4ccc(Cl)cc4)[C@H](N)[C@H]3O)[C@H](N)C[C@@H]2N)[C@H](O)[C@@H](O)[C@@H]1O
Imax [1]: 94% | Activity (HeLa [3]): Non-Toxic

NC[C@H]1O[C@H](O[C@H]2[C@H](O)[C@@H](O[C@@H]3O[C@H](COCc4ccccc4)[C@@H](OCc4ccccc4)[C@H](N)[C@H]3O)[C@H](N)C[C@@H]2N)[C@H](O)[C@@H](O)[C@@H]1O
Imax [1]: 99% | Activity (HeLa [3]): Non-Toxic

CCCCCCO[C@H]1[C@H](N)[C@@H](O)[C@H](O[C@@H]2[C@@H](O)[C@H](O[C@H]3O[C@H](CN)[C@@H](O)[C@H](O)[C@H]3O)[C@@H](N)C[C@H]2N)O[C@@H]1CO
Imax [1]: 99% | Activity (HeLa [3]): Non-Toxic

Cc1ccc(COC[C@H]2O[C@@H](O[C@@H]3[C@@H](O)[C@H](O[C@H]4O[C@H](CN)[C@@H](O)[C@H](O)[C@H]4O)[C@@H](N)C[C@H]3N)[C@H](O)[C@@H](N)[C@@H]2OCc2ccc(C)cc2)cc1
Imax [1]: 94% | Activity (HeLa [3]): Non-Toxic

CCCCCCCCCOC[C@H]1O[C@@H](O[C@@H]2[C@@H](O)[C@H](O[C@H]3O[C@H](CN)[C@@H](O)[C@H](O)[C@H]3O)[C@@H](N)C[C@H]2N)[C@H](O)[C@@H](N)[C@@H]1OCCCCCCCCC
Imax [1]: 99% | Activity (HeLa [3]): Non-Toxic

NC[C@H]1O[C@H](O[C@H]2[C@H](O)[C@@H](O[C@@H]3O[C@H](COCc4cccc5ccccc45)[C@@H](OCc4cccc5ccccc45)[C@H](N)[C@H]3O)[C@H](N)C[C@@H]2N)[C@H](O)[C@@H](O)[C@@H]1O
Imax [1]: 94% | MIC (Staphylococcus aureus): 64 µg/mL (≈ 83.7 µM) | Activity (HeLa [3]): Non-Toxic

CCCCCCOC[C@H]1O[C@@H](O[C@@H]2[C@@H](O)[C@H](O[C@H]3O[C@H](CN)[C@@H](O)[C@H](O)[C@H]3O)[C@@H](N)C[C@H]2N)[C@H](O)[C@@H](N)[C@@H]1OCCCCCC
Imax [1]: 99% | Activity (HeLa [3]): Non-Toxic

CCCCOC[C@H]1O[C@@H](O[C@@H]2[C@@H](O)[C@H](O[C@H]3O[C@H](CN)[C@@H](O)[C@H](O)[C@H]3O)[C@@H](N)C[C@H]2N)[C@H](O)[C@@H](N)[C@@H]1OCCCC
Imax [1]: 99% | Activity (HeLa [3]): Non-Toxic

CO[C@@H]1[C@@H](O[C@@H]2O[C@H](COCc3ccccc3)[C@@H](OCc3ccccc3)[C@H](N)[C@H]2OC)[C@H](N)C[C@H](N)[C@H]1O[C@H]1O[C@H](CN)[C@@H](OC)[C@H](OC)[C@H]1OC
Imax [1]: 99% | Activity (HeLa [3]): Non-Toxic

NC[C@H]1O[C@H](O[C@H]2[C@H](O)[C@@H](O[C@@H]3O[C@H](COCc4ccc5ccccc5c4)[C@@H](OCc4ccc5ccccc5c4)[C@H](N)[C@H]3O)[C@H](N)C[C@@H]2N)[C@H](O)[C@@H](O)[C@@H]1O
Imax [1]: 94% | Activity (HeLa [2]): 40 to 60% | selectivity ratio (Cx26): ≤ 20

CCCCCCCCOC[C@H]1O[C@@H](O[C@@H]2[C@@H](O)[C@H](O[C@H]3O[C@H](CN)[C@@H](O)[C@H](O)[C@H]3O)[C@@H](N)C[C@H]2N)[C@H](O)[C@@H](N)[C@@H]1OCCCCCCCC
Imax [1]: 99% | Activity (HeLa [3]): Non-Toxic

NC[C@H]1O[C@H](O[C@H]2[C@H](O)[C@@H](O[C@@H]3O[C@H](COCc4cccc(-c5ccccc5)c4)[C@@H](OCc4cccc(-c5ccccc5)c4)[C@H](N)[C@H]3O)[C@H](N)C[C@@H]2N)[C@H](O)[C@@H](O)[C@@H]1O
Imax [1]: 94% | MIC (Staphylococcus aureus): 16 µg/mL (≈ 19.6 µM) | Activity (HeLa [2]): 40 to 60% | selectivity ratio (Cx26): ≤ 20
